Measured values taken from patent US12195437B2, “Lipophenolic flavonoid derivatives useful to reduce carbonyl and oxidative stresses (COS)” (Centre National de la Recherche Scientifique (CNRS), priority 2018, dated 2025).
Entries after “also recorded” stand apart in the source; their conditions may differ.

Columns and labels:
Assay type in all cases: cell-based
[1] = tested on: ARPE-19 cells; assay: Cytotoxicity of lipophenols on ARPE-19 cells (MTT); details: 24 h
Procedure: (§1) Cell viability was determined by MTT colorimetric assay. Cells were incubated for 2 h with MTT reagent (0.5 mg/mL). During this incubation time, dehydrogenases of living cells reduced MTT to insoluble purple formazan, which was then dissolved in DMSO. The absorbance at 570 nm and 655 nm of individual wells was measured using a microplate reader (BioRad 550). The percentage of viable cells was calculated as [(OD570 sample−OD655 sample)/(OD570 control−OD655 control)]×100%.
(§2) ARPE-19 cells were plated into 96-well plates (4×10^4 cells/well) and cultured for 24 h to reach confluence before lipophenol treatment. […] Control cells were incubated with DMSO (0.2%). The viability of the cells was determined using a MTT colorimetric assay. All samples are expressed as percentage of viability compared to non-treated control cells (normalized at 100% survival).
(§3) Results on the measurement of lipophenol toxicity will be discussed in % cell survival at a given lipophenol concentration compared to untreated cells. […] Any concentration of lipophenol resulting in cell survival of less than 5% (zero survival) will be considered a highly toxic concentration.

[2] = Cytotoxicity of lipophenols on ARPE-19 cells (MTT); details: human, ARPE-19 cells (retinal pigment epithelium), tested 0-160 μM, read-out: CC50 (cytotoxic concentration 50)
Procedure: as §1, §2, §3

[3] = tested on: ARPE-19 cells; assay: Protection of lipophenols against all-trans-retinal toxicity (anti-carbonyl stress activity, MTT); details: trans-retinal 15 μM; for cell survival gain (anti-carbonyl stress activity): compared to stressed untreated cells
Procedure: (§4) ARPE-19 cells (cells from the retinal pigment epithelium) were obtained from ATCC, and were grown following the instructions in Dulbecco's Modified Eagle's Medium (DMEM)/Ham F12 (GIBCO) containing 10% v/v fetal bovine serum (FBS) and 1% v/v penicillin/streptomycin under a humidified air (95%)/CO2 (5%) atmosphere at 37° C. For experimental cell seeding and sub-culturing, cells were dissociated with 0.25% trypsin-EDTA, re-suspended in the culture medium and then plated at 1-3×10^5 cells/mL.
as §1
ARPE-19 cells were plated into 96-well plates (4×10^4 cells/well) and cultured for 24 h to reach confluence before lipophenol treatment. The cell cultures were treated with serum free medium containing lipophenols at different concentrations (0-80 μM) for 1 h. Then all-trans-retinal was added to a final concentration of 15 μM for 4 h, before rinsing with medium. Control cells were incubated with DMSO (0.2%)±all-trans-retinal. The cell viability was determined 16-20 h later using a MTT colorimetric assay. All samples are expressed as percentage of viability compared to non-treated and exposed to all-trans-retinal control cells. Non-treated and non-exposed to all-trans-retinal control cells are normalized at 100% survival.
The results on the measurement of anti-carbonyl stress activity will be discussed in % cell survival gain compared to cells stressed by trans-retinal (at 15 μM) and not treated with lipophenols. Any survival gain greater than +5% will be considered as a proven anti-carbonyl stress activity.

[4] = tested on: ARPE-19 cells; assay: Protection of lipophenols against photoactivated A2E toxicity (MTT); details: from 40 μM lipophenol (plateau), A2E 20 μM, blue light
Procedure: as §4, §1
ARPE-19 cells were plated into 96-well plates (4×10^4 cells/well) and cultured for 24 h to reach confluence before lipophenol treatment. The cell cultures were treated with serum free DMEM/F12 medium without phenol red containing lipophenols at different concentrations (0-80 μM) for 1 h. Then A2E was added to a final concentration of 20 μM for 6 h, before rinsing with medium. Control cells were incubated with DMSO (0.2%)+A2E. Cells were exposed to intense blue light (4600 LUX) for 30 min to induce phototoxicity of A2E and incubated at 37° C. The cell viability was determined 16-20 h later using a MTT colorimetric assay. All samples are expressed as percentage of viability compared to non-treated and exposed to A2E control cells. Non-treated and non-exposed to A2E control cells are normalized at 100% survival.
Photoactivation of A2E leads to its oxidation and can generate cytotoxic derivatives, in particular carbonyl derivatives responsible for carbonyl stress. Results on lipophenol protection against photoactivated A2E toxicity will be discussed in % cell survival gain compared to cells stressed by A2E and not treated by lipophenols. This additional evaluation was not performed for all synthesized lipophenolic derivatives but only a selection of them to discuss the results obtained.

[5] = tested on: ARPE-19 cells; assay: Protection of lipophenols against ROS production (DCFDA probe, H2O2); details: 80 μM lipophenol, H2O2 600 μM
Procedure: as §4
Reactive oxygen species (ROS) were measured in ARPE-19 cells with the probe DCFDA. The cell permeant reagent DCFDA is deacetylated by cellular esterases to […], which can be oxidized by ROS into the fluorophore 2′,7′-dichlorofluorescein (DCF). ARPE-19 cells were plated into black, opaque bottom 96-well plates (4×10^4 cells/well) and cultured for 24 h to reach confluence before drug treatment. The cell cultures were incubated with 2 μM of DCFDA for 45 min in DMEM/F12 medium without phenol red+1% FBS. The cells were rinsed and incubated with medium containing lipophenols at different concentrations (0-80 μM) for 1 h. Then H2O2 was added to a final concentration of 600 μM for 4 h, followed by the measurement of DCF production by fluorescence spectroscopy with excitation wavelength at 485 nm and emission wavelength at 535 nm. Control cells were incubated with DMSO (0.2%)±DCFDA±H2O2. All samples are expressed as percentage of ROS production compared to non-oxidized control cells (normalized at 100% of ROS production).
The lowest percentages of increase will therefore be representative of the most protective derivatives.

Compound	concentration from which cytotoxicity is induced [1] [µM]	CC50 at 24 h [2] [µM]	cell survival gain (anti-carbonyl stress activity) ([3]; 40 μM lipophenol)	anti-carbonyl stress activity (in words) ([3]; up to 80 μM lipophenol)	cell survival gain against photoactivated A2E [4]	cell survival gain (anti-carbonyl stress activity) ([3]; 80 μM lipophenol)	gain of % of ROS production compared to non-stressed cells [5]
CC/C=C\C/C=C\C/C=C\C/C=C\C/C=C\C/C=C\CCC(=O)Oc1c(-c2ccc(O)c(O)c2)oc2cc(O)cc(OC(C)C)c2c1=O [Q-3DHA-5OiP, (4Z,7Z,10Z,13Z,16Z,19Z)-7-hydroxy-2-(3,4-dihydroxyphenyl)-5-isopropoxy-4-oxo-4H-chromen-3-yl docosa-4,7,10,13,16,19-hexaenoate]	60	> 40	+27%	–	–	–	–
O=c1c(O)c(-c2ccc(O)c(O)c2)oc2cc(O)cc(O)c12 [quercetin, reference compound]	–	~120	–	did not show anti-carbonyl stress potency; also recorded: no cellular protection	+36%	–	–
CCCCC/C=C\C/C=C\CCCCCCCC(=O)O[C@H]1Cc2c(O)cc(O)cc2O[C@@H]1c1ccc(O)c(O)c1 [C-3LA, (9Z,12Z)-(2R,3S)-2-(3,4-dihydroxyphenyl)-5,7-dihydroxy-chroman-3-yl octadeca-9,12-dienoate]	–	< 160	–	–	–	+11%	+24%
